# Test results taken from patent US9718810B2, “Solid state forms of a quinazoline derivative and its use as a BRAF inhibitor” (Ignyta, Inc., priority 2013, dated 2017).
# Where two headings read alike, the source gives them in different places.
# How the values were obtained:
# [1] = Gravimetric vapor sorption (GVS); format: physicochemical; details: for hygroscopicity: adsorption and desorption curves overlap; for XRPD after GVS analysis: form change after GVS cycles
# Procedure: GVS experiments have been carried out using the DVS-HT instrument (Surface Measurement Systems, London, UK). This instrument measures the uptake and loss of vapor gravimetrically using a recording ultra-microbalance with a mass resolution of ±0.1 μg. The vapor partial pressure (±1.0%) around the sample is controlled by mixing saturated and dry carrier gas streams using electronic mass flow controllers. The desired temperature is maintained at ±0.1° C. The samples (1-10 mg) were placed into the DVSHT and DVS-1 instruments at the desired temperature. The sample was loaded and unloaded at 40% RH and 25° C. (typical room conditions). A moisture sorption isotherm was performed as outlined below (2 scans giving 1 complete cycle). The software uses a least squares minimization procedure together with a model of the mass relaxation, to predict an asymptotic value. The measured mass equilibration value must be within 2% of that predicted by the software before the next % RH value is selected. The minimum equilibration time was set to 1 hour and the maximum to 4 hours.
# [2] = Kinetic solubility measurement in pure water; format: physicochemical; details: for pH: pH of the aqueous solubility sample; for Aqueous solubility: pure water, ambient room temperature, 20 minutes, expressed as free base
# Procedure: Typically 1-5 mg of samples were diluted to 10 mL with sample solvent (1:1 (v:v) Mobile phase A:Mobile phase B) and the assay concentrations were determined from an average of duplicate injections using the following HPLC method. The purity and impurity analyses are done using conventional HPLC.
# The free base and the salts listed in the table below were added in excess (saturation) to water in a 2.0 mL glass vial. The samples were put on an end-to-end rotator (50 rpm) at ambient room temperature up to 20 minutes. After 20 minutes, a sampling was taken for HPLC analysis.
# [3] = Solid-state stress stability at 40° C./75% RH; format: physicochemical; details: for Area Purity / HPLC Assay / XRPD: 40° C./75% RH; for solid state stability: 40° C./75% relative humidity without desiccant
# Procedure: Typically 1-5 mg of samples were diluted to 10 mL with sample solvent (1:1 (v:v) Mobile phase A:Mobile phase B) and the assay concentrations were determined from an average of duplicate injections using the following HPLC method. The purity and impurity analyses are done using conventional HPLC. Samples of Compound I free base and its salts (approximately 10 mg each) were stored at 40° C./75% RH in open glass vials (4 cm^3) over four weeks without desiccant. Stress stability studies were performed to get a timely impression of the influence of temperature and humidity on Form stability.
# [4] = target: T1, BRAF V600E (Homo sapiens, UniProt P15056, V600E); assay: BRAF V600E inhibition in isolated systems; format: biochemical; details: in vitro
# [5] = target: T1, BRAF V600E; assay: BRAF V600E inhibition in intact cells; format: cell-based; details: in vitro
# [6] = Solubility of Form A0 in organic solvents at the boiling point; format: physicochemical; details: for solubility: organic solvent or mixture, thermodynamic from solid, read-out: Solubility Estimate at The Boiling Point
# Procedure: The following procedure was used to assess the solubility of the anhydrous free base of Compound I (Form A0) in a range of nine organic solvents listed in Table 3. Using 1.8 mL HPLC vials, approximately 10 mg of Form A0 was stirred at the boiling point in 200 μL of nine different solvents. […] The additions were stopped when the solid dissolved or when 1000 μL had been dispensed. […] Methyl t-butyl ether was chosen as an anti-solvent (<10 mg/mL).
# [7] = Methyl-t-butyl Ether, 55.2 ° C.
# T1 sequence (P15056 whole entry V600E): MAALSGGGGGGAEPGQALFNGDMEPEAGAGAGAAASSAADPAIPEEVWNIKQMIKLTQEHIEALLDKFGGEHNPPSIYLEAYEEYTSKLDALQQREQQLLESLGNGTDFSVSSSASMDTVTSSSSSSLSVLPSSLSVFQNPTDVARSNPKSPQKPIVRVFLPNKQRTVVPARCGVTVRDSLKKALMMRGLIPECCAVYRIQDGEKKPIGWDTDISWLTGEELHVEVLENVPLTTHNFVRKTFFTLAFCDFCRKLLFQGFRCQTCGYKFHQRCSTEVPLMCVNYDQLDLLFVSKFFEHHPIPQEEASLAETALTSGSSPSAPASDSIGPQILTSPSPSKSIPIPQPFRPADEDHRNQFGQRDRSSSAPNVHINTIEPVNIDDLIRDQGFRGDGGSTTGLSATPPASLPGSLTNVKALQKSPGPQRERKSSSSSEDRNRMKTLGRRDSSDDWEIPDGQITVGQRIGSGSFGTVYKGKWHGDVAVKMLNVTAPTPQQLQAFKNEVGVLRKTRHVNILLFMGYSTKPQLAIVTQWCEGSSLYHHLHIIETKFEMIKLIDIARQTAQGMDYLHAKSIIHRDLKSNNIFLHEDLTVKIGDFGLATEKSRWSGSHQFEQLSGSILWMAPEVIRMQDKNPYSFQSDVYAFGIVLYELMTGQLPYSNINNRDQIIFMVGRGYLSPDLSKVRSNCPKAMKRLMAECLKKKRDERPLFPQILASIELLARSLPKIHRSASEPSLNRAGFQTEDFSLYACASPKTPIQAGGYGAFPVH
SMILES,amount of moisture adsorbed at 75% RH ([1]; 25° C.),GVS: Percent increase in mass at 90% RH ([1]; 25° C.),hygroscopicity [1],XRPD after GVS analysis [1],pH [2],Aqueous solubility [2],Area Purity ([3]; 0 days),HPLC Assay ([3]; 0 days),XRPD ([3]; 0 days),Area Purity ([3]; 14 days),HPLC Assay ([3]; 14 days),XRPD ([3]; 14 days),Area Purity ([3]; 28 days),HPLC Assay ([3]; 28 days),XRPD ([3]; 28 days),solid state stability ([3]; 28 days),other results
COc1cc2ncnc(Oc3cccc(NC(=O)Nc4cc(C(C)(C)C(F)(F)F)on4)c3)c2cc1OC [Bromide A1],less than 0.7%,1.0%,not hygroscopic,No change,6.6,0.1 mg/mL,,,,,,,,,,,"GVS: Percent increase in mass at 90% RH ([1]; 25° C., listed as Bromide Form A1): approximately 1%; XRPD after GVS analysis ([1]; listed as Bromide Form A1): compares nicely to the pattern of the material before GVS"
COc1cc2ncnc(Oc3cccc(NC(=O)Nc4cc(C(C)(C)C(F)(F)F)on4)c3)c2cc1OC.Cl [Chloride A1],,1.7%,,No change,7.3,0.56 mg/mL,99.5%,99.9%,Form A1,97.6%,98.7%,Form A1,96.4%,100.4%,Form A1,stable for 28 days,"XRPD after GVS analysis ([1]; listed as Chloride Form A1): No form change occurred; dissolution in pure water, ranking of salts ([2]; pure water (pH=7)): best salt for dissolution in pure water; Area Purity ([3]; 7 days): 98.7%; HPLC Assay ([3]; 7 days): 98.3%; XRPD ([3]; 7 days): Form A1"
"COc1cc2ncnc(Oc3cccc(NC(=O)Nc4cc(C(C)(C)C(F)(F)F)on4)c3)c2cc1OC [Compound I, 1-[3-(6,7-dimethoxy-quinazolin-4-yloxy)-phenyl]-3-[5-(2,2,2-trifluoro-1,1-dimethyl-ethyl)-isoxazol-3-yl]-urea]",,,,,,,,,,,,,,,,,inhibits BRAF V600E [4]: low nanomolar concentrations; inhibits BRAF V600E [5]: low nanomolar concentrations
COc1cc2ncnc(Oc3cccc(NC(=O)Nc4cc(C(C)(C)C(F)(F)F)on4)c3)c2cc1OC [Form A0],,1.3%,,compares nicely to the pattern of the material before GVS,7.4,,98.3%,100.0%,Form A0,98.5%,100.5%,Form A0,98.2%,102.4%,Form A0,stable for 28 days,"Solubility Estimate at The Boiling Point [6, 7]: <10 mg/mL; solubility ([6]; Acetone, 56.5 ° C.): > 50 mg/mL; solubility ([6]; Acetonitrile, 82.0 ° C.): < 20 mg/mL; solubility ([6]; Chloroform, 61.2 ° C.): > 50 mg/mL; solubility ([6]; Dichloromethane, 40.0 ° C.): > 20 mg/mL; solubility ([6]; Ethyl Acetate, 77.1 ° C.): < 30 mg/mL; solubility ([6]; Methanol, 64.7 ° C.): < 20 mg/mL; solubility [6, 7]: < 10 mg/mL; solubility ([6]; Tetrahydrofuran, 66.0 ° C.): > 50 mg/mL; solubility ([6]; Toluene, 110.6 ° C.): < 30 mg/mL; XRPD after GVS analysis ([1]; listed as A0): No change; moisture uptake ([1]; from 40 to about 90% RH): less than 1.3 % (w/w); Aqueous solubility ([2]; listed as Free base A0): <0.01 mg/mL; Area Purity ([3]; 6 days): 98.5%; HPLC Assay ([3]; 6 days): 102.3%; XRPD ([3]; 6 days): Form A0"
COc1cc2ncnc(Oc3cccc(NC(=O)Nc4cc(C(C)(C)C(F)(F)F)on4)c3)c2cc1OC.O=C(O)CC(=O)O [Malonate A1],,,,No form change occurred,6.6,0.07 mg/mL,,,,,,,,,,,"total uptake of water ([1]; RH range of 0-90%, 25° C.): < 4%"
COc1cc2ncnc(Oc3cccc(NC(=O)Nc4cc(C(C)(C)C(F)(F)F)on4)c3)c2cc1OC.O=P(O)(O)O [Phosphate A1],less than 1.8%,2.7%,not hygroscopic,No change,6.8,0.09 mg/mL,,,,,,,,,,,"GVS: Percent increase in mass at 90% RH ([1]; 25° C., listed as phosphate Form A1): approximately 2.7%; XRPD after GVS analysis ([1]; listed as phosphate Form A1): compares nicely to the pattern of the material before GVS"
